In ChEMBL document CHEMBL1139918, “Novel series of substituted biphenylmethyl urea derivatives as MCH-R1 antagonists for the treatment of obesity” (Bioorg Med Chem, 2007):

What was measured:
[1] = biological target: T1, Melanin-concentrating hormone receptor 1 (Homo sapiens, UniProt Q99705); details: HEK293
Description: Antagonist activity at human MCH1 receptor expressed in HEK cells after 45 mins by [35S]GTP-gamma-S binding assay

[2] = biological target: T1, Melanin-concentrating hormone receptor 1; experiment: Displacement of [3H]SNAP from human MCH1 receptor expressed in HEK cells; type: cell-based, HEK293
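Wherever pKb is given: antagonism measured by [35S]GTPγS binding in HEK cells carrying human MCH1 receptor, 45 min incubation.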

T1 sequence (Q99705 whole entry): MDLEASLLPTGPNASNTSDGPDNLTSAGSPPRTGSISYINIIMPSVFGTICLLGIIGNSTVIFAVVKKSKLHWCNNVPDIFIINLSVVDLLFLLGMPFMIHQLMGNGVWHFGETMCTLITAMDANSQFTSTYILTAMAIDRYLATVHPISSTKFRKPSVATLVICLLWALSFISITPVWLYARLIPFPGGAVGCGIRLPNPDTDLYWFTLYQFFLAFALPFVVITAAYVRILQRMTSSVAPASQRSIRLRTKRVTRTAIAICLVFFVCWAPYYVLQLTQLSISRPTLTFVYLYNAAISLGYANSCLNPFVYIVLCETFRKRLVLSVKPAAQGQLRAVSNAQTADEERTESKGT

SMILES | pKb [1] | Ki ([2]; read-out: Ki) [nM] | Ki ([2]; read-out: Log Ki (converted)) [nM]
COc1ccc(-c2ccc(CN(CC(=O)C(C)(C)O)C(=O)NC3CCN(Cc4ccc(C)cc4)CC3)cc2)cc1 | < 5 |  | 
COc1ccccc1-c1ccc(CNC(=O)NC2CCN(Cc3ccc(C)cc3)CC2)cc1 | 6.19 | 425 | 
CCC(COC(C)=O)(COC(C)=O)NC(=O)N(CCC1CCN(Cc2ccc(C)cc2)CC1)Cc1ccc(-c2ccc(F)cc2)cc1 | 6.71 | 214 | 
Cc1ccc(CN2CCC(NC(=O)N(CC(=O)C(C)(C)O)Cc3ccc(-c4ccc(F)cc4)cc3)CC2)cc1 | 5.34 | 5860 | 
Cc1ccc(CN2CCC(NC(=O)NCc3ccc(-c4ccc(F)cc4)cc3)CC2)cc1 | 6.71 | 545 | 543
COc1ccc(-c2ccc(CN(CCC3CCN(Cc4ccc(C)cc4)CC3)C(=O)NC(C)C)cc2)cc1 | 6.33 | 273 | 
Cc1ccc(CN2CCC(CCN(Cc3ccc(-c4cccc(C#N)c4)cc3)C(=O)NC(C)C)CC2)cc1 | 6 | 509 | 
COc1ccccc1-c1ccc(CN(CCC2CCN(Cc3ccc(C)cc3)CC2)C(=O)NC(C)C)cc1 | < 5 |  | 
CC(=O)OCC(C)(C)NC(=O)N(CCC1CCN(Cc2ccc(C)cc2)CC1)Cc1ccc(-c2ccc(F)cc2)cc1 | 6.39 | 421 | 
Cc1ccc(CN2CCC(CCN(Cc3ccc(-c4ccc(F)cc4)cc3)C(=O)NC(C)C)CC2)cc1 | 6.42 | 314 | 313
CCC(COC(C)=O)(COC(C)=O)NC(=O)N(CCC1CCN(Cc2ccc(C)cc2)CC1)Cc1ccc(-c2cccc(C#N)c2)cc1 |  | 1080 | 
COc1ccccc1-c1ccc(CN(CCC2CCN(Cc3ccc(C)cc3)CC2)C(=O)NC(C)(C)COC(C)=O)cc1 | 6.14 | 215 | 
CCC(COC(C)=O)(COC(C)=O)NC(=O)N(CCC1CCN(Cc2ccc(C)cc2)CC1)Cc1ccc(-c2ccc(OC)cc2)cc1 | 6.86 | 170 | 
CC(=O)OCC(C)(C)NC(=O)N(CCC1CCN(Cc2ccc(C)cc2)CC1)Cc1ccc(-c2cccc(C#N)c2)cc1 | 6.63 | 254 | 
Cc1ccc(CN2CCC(NC(=O)NCc3ccc(-c4cccc(C#N)c4)cc3)CC2)cc1 | 6.38 | 186 | 
Cc1ccc(CN2CCC(NC(=O)NCc3ccc(-c4ccccc4)cc3)CC2)cc1 | 5.97 | 2640 | 2660
Cc1ccc(CN2CCC(NC(=O)N(CC(=O)C(C)(C)O)Cc3ccc(-c4cccc(C#N)c4)cc3)CC2)cc1 | 5.3 | 6380 | 
CCC(COC(C)=O)(COC(C)=O)NC(=O)N(CCC1CCN(Cc2ccc(C)cc2)CC1)Cc1ccc(-c2ccccc2OC)cc1 |  | 1200 | 
COc1ccc(-c2ccc(CNC(=O)NC3CCN(Cc4ccc(C)cc4)CC3)cc2)cc1 | 6.36 | 1460 | 
COc1ccc(-c2ccc(CN(CCC3CCN(Cc4ccc(C)cc4)CC3)C(=O)NC(C)(C)COC(C)=O)cc2)cc1 | 6.19 | 595 | 
COc1ccccc1-c1ccc(CN(CC(=O)C(C)(C)O)C(=O)NC2CCN(Cc3ccc(C)cc3)CC2)cc1 | 5.43 | 6050 | 

More lines, now with the values ahead:

pKb [1] | Ki ([2]; read-out: Ki) [nM] | Ki ([2]; read-out: Log Ki (converted)) [nM] | SMILES
6.43 | 947 |  | CC(=O)OCC(C)(C)NC(=O)N(CCC1CCN(Cc2ccc(C)cc2)CC1)Cc1ccc(-c2ccccc2)cc1
6.54 | 149 |  | CCC(CO)(CO)NC(=O)N(CCC1CCN(Cc2ccc(C)cc2)CC1)Cc1ccc(-c2ccc(F)cc2)cc1
6.65 | 167 |  | CCC(CO)(CO)NC(=O)N(CCC1CCN(Cc2ccc(C)cc2)CC1)Cc1ccc(-c2ccccc2OC)cc1
5.41 | 769 |  | CCC(CO)(CO)NC(=O)N(CCC1CCN(Cc2ccc(C)cc2)CC1)Cc1ccc(-c2cccc(C#N)c2)cc1
7.08 | 43 |  | Cc1ccc(CN2CCC(CCN(Cc3ccc(-c4cccc(C#N)c4)cc3)C(=O)NC(C)(C)CO)CC2)cc1
6.93 | 143 |  | CCC(CO)(CO)NC(=O)N(CCC1CCN(Cc2ccc(C)cc2)CC1)Cc1ccc(-c2ccc(OC)cc2)cc1
6.83 | 173 |  | CCC(CO)(CO)NC(=O)N(CCC1CCN(Cc2ccc(C)cc2)CC1)Cc1ccc(-c2ccccc2)cc1
6.2 | 144 |  | Cc1ccc(CN2CCC(CCN(Cc3ccc(-c4ccccc4)cc3)C(=O)NC(C)(C)CO)CC2)cc1
6.88 | 251 |  | COc1ccccc1-c1ccc(CN(CCC2CCN(Cc3ccc(C)cc3)CC2)C(=O)NC(C)(C)CO)cc1
6.58 | 388 |  | CCC(COC(C)=O)(COC(C)=O)NC(=O)N(CCC1CCN(Cc2ccc(C)cc2)CC1)Cc1ccc(-c2ccccc2)cc1
7.38 | 96.6 |  | Cc1ccc(CN2CCC(CCN(Cc3ccc(-c4ccc(F)cc4)cc3)C(=O)NC(C)(C)CO)CC2)cc1
 | 258 |  | Cc1ccc(CN2CCC(CCN(Cc3ccc(-c4ccccc4)cc3)C(=O)NC(C)C)CC2)cc1
7.06 | 204 |  | COc1ccc(-c2ccc(CN(CCC3CCN(Cc4ccc(C)cc4)CC3)C(=O)NC(C)(C)CO)cc2)cc1
